These results are taken from patent US20100303932A1 (priority 2009, published 2010).

Several values for one entry are separate records, joined by “and”; a condition that tells them apart may be missing. Equal entries are not always repeated.

The test system of series [1] is Neuro 2a cells. It counts as cell-based, mouse.
A further series has as its system motor nerve terminals. Set-up: species or system mouse.
Series [2] deals with mice injected with BoNT/A. Conditions: mouse, in vivo.
The subject of series [3] is mice injected with BoNT/A. Conditions: mouse, in vivo. This is another data set of the same source.
For series [4], the system named is mice injected with BoNT/A.
The subject of series [5] is EDL nerve muscle preparations.
Series [6] has as its system Neuro 2a cells. It counts as cell-based, mouse. This is another data set of the same source.
The test system of series [7] is mice injected with BoNT/A. Conditions: mouse, in vivo. The source holds these as a separate data set.
Series [8] deals with EDL nerve muscle preparations. On the set-up: species or system mouse.
Another series relates to TRPV1. On the set-up: species or system mouse.
Series [9] concerns mice injected with BoNT/A. Conditions: mouse, in vivo. This is another data set of the same source.
The conditions of series [10]: mouse, in vivo.

With `COc1cc(CNC(=O)CCCC/C=C/C(C)C)ccc1O` [capsaicin, trans 8-methyl-N-vanillyl-6-noneamide], in the series with Neuro 2a cells [1], the FM1-43 labeling result is “equivalent to control” and the “protective effect of capsaicin on FM1-43 uptake” value was “did not occur”. For the same compound, in the series with motor nerve terminals, the “exocytosis-induced uptake of BoNT/A into motor nerve terminals” value is “prevented” and the “reduction of BoNT/A uptake into motor nerve terminals by capsaicin” value is “prevented by removal of extracellular Ca^2+”. Moreover, in series [2], the “Toe spread reflex (TSR)” value is given as “remained completely normal”, the “Toe spread reflex (TSR) at times later than 24 hours after BoNT/A” value was “continued unaltered” and the “Toe spread reflex (TSR) within 24 hours” value is “remained normal”. Moreover, in series [3], the “walk time on rotating rod” value was “remained equivalent to non-treated controls”. For the same compound, in [4] (mouse, in vivo), the “CMAP amplitude compared to BoNT/A alone treated mice” value is on record as “significantly greater”; the “fold recovery of CMAP from week 1 to week 7” value was “approximately 18 fold”; the “muscle strength, body weight, CMAP amplitude and performance on the rotor rod” value is listed as “normal”. In addition, the CMAP amplitude in series [4] (n=4) was 4.6±0.92 mV and 6.7±1.24 mV and 7.6±1.12 mV. The “force generation or amplitude of stimulus evoked endplate currents (EPC)” value in series [5] was “no effect”. Moreover, the “mean nerve-evoked twitch tension” value in series [5] (n=4) worked out at 500 ± 100 mg. Besides, in the series with Neuro 2a cells [6], the “BoNT/A uptake into Neuro 2a cells” value was “reduced” and the “reduction of BoNT/A uptake into Neuro 2a cells by capsaicin” value is reported as “prevented by removal of extracellular Ca^2+”. Also, in [7], the “Muscle Strength (%) ± SEM” value was determined as 100% and the motor strength result is “retained normal motor strength”. Further, in series [8], the “amplitude of endplate currents (EPCs)” value was “reduced this action of BoNT/A”, the “endplate potentials (EPPs) in response to 70 Hz nerve stimulation” value is listed as “did not fail” and the “inhibitory effect of BoNT/A on mean EPC amplitude” value is recorded as “reduced the inhibitory effect of BoNT/A”. The “expression of TRPV1” value in the series on TRPV1 was “did not affect”. Besides, the “cessation of grooming behavior after BoNT/A” value in series [9] is “reduced”. Moreover, in [10], the “Body Weight (gram) ± SEM” value was 32.62 ± 0.56 gram and 33.55 ± 0.51 gram and 38.39 ± 0.93 gram; the “loss of body mass after BoNT/A” value is reported as “reduced the loss of body mass”; the “recovery of body weight following BoNT/A” value was “significantly enhanced recovery of body weight”.

Regarding `Oc1cc2c(cc1O)CN(C(=S)NCCc1ccc(Cl)cc1)CCC2` [capsazepine], in series [2], the “toe spread 24 hours post-capsaicin” value is listed as “unable to spread toes”. In addition, in [8], the “EPC amplitude or time course” value is given as “no effect”, the “amplitude of endplate currents (EPCs)” value is reported as “equivalent to that observed after BoNT/A alone” and the “inhibitory effect of BoNT/A on mean EPC amplitude” value is on record as “the protective action of capsaicin was abolished”.
